Tested on: Eimeria tenella sporocytes
Test: in vitro comparative trials for effectiveness: chicken fibroblasts infected with E. tenella sporocytes
Type: cell-based
Conditions: 24 hours of incubation; for cells quantified in 9 fields, X (±SD): CS-3 chicken fibroblasts + E. tenella sporocytes (about 3 per cell), microscope 40 X; for cells quantified in 9 fields, Means mean (±SD): mean of replications A to C, CS-3 chicken fibroblasts + E. tenella sporocytes

## Cc1cc(-n2c(=O)[nH]c(=O)n(C)c2=O)ccc1Oc1ccc(SC(F)(F)F)cc1 [Example 2]
Replication A
  cells quantified in 9 fields, X (±SD): 999 (12)
Replication B
  cells quantified in 9 fields, X (±SD): 899 (8)
Replication C
  cells quantified in 9 fields, X (±SD): 789 (6)
  cells quantified in 9 fields, Means mean (±SD): 895 (105)

## CO[C@@H]1[C@@H](OC)[C@H](C)[C@@](O)(CC(=O)O)O[C@H]1[C@H](C)[C@H]1O[C@@]2(CC[C@@](C)([C@H]3CC[C@@](C)([C@@H]4O[C@@H]([C@H]5O[C@](C)(O)[C@H](C)C[C@@H]5C)C[C@@H]4O[C@@H]4C[C@H](OC)[C@@H](OC)[C@H](C)O4)O3)O2)C[C@H](O)[C@H]1C [Example 1, Maduramicine]
Replication A
  cells quantified in 9 fields, X (±SD): 268 (29)
Replication B
  cells quantified in 9 fields, X (±SD): 156 (35)
Replication C
  cells quantified in 9 fields, X (±SD): 239 (21)
  cells quantified in 9 fields, Means mean (±SD): 221 (58)
